≈ marks a conversion by molar mass, not a printed value. Where two headings read alike, the source gives them in different places.
Legend:
Assay in all cases: Minimum inhibitory concentration, conventional tube dilution method
Type in all cases: cell-based
Staph. aureus = conditions: Staphylococcus aureus; gram-positive; tube dilution, 37 degrees, 24 hours; between 1 and 6 strains; mg/100 cc; decimal comma; read-out: Minimal Inhibitory Concentration, Staph. aureus
From the text: (§1) The activity of some of the new nitrofuryl quinoline derivatives of the present invention is exemplified in Table 1 against a gram-positive (Staph. aureus), a gram-negative (Salmonella) bacterium and a fungus (Candida albicans). Table 1 indicates the minimum inhibitory concentration of the compound under reference in mg/100 cc required in order to inhibit the growth between 1 and 6 strains of each type. The measurements have been carried out by the conventional tube dilution method at 37 degrees after 24 hours.

Candida albicans = conditions: fungus, tube dilution, 37 degrees, 24 hours, between 1 and 6 strains, mg/100 cc, decimal comma, read-out: Minimal Inhibitory Concentration, Cand. Alb.
From the text: as §1

Salmonella = conditions: read-out: Minimal Inhibitory Concentration, Salm.
From the text: as §1

[1] = gram-negative, tube dilution, 37 degrees, 24 hours, between 1 and 6 strains, mg/100 cc, decimal comma

SMILES	MIC (Staph. aureus) [µg/mL]	MIC (Candida albicans) [µg/mL]	MIC (Salmonella; [1]) [µg/mL]	MIC (Salmonella; 24 h) [µg/mL]
Cc1cc(-c2ccc([N+](=O)[O-])o2)c2ccccc2n1 [CH3 H NF H H H H, 2-methyl-4-[2'-(5'-nitrofuryl)] quinoline]	0.1 to 1 (≈ 0.393 to 3.93 µM)	5 (≈ 19.7 µM)	5 (≈ 19.7 µM)	–
CCCc1cc(-c2ccc([N+](=O)[O-])o2)c2ccc(C)cc2n1 [C3 H7 H NF H H CH 3 H]	5 (≈ 16.9 µM)	> 50	> 50	–
O=C(c1cc(-c2ccc([N+](=O)[O-])o2)c2ccccc2n1)N1CCOCC1 [drawing 11 H NF H H H H]	0.1 to 0.5 (≈ 0.283 to 1.42 µM)	50 (≈ 142 µM)	25 to 50 (≈ 70.8 to 142 µM)	–
CCCc1cc(-c2ccc([N+](=O)[O-])o2)c2ccc(C)cc2[n+]1[O-] [OC3 H7 H NF H H CH3 H]	1 (≈ 3.2 µM)	> 50	–	> 50
CCc1cc(-c2ccc([N+](=O)[O-])o2)c2ccc(C)cc2[n+]1[O-] [O C2 H5 H NF H H CH3 H]	0.5 (≈ 1.68 µM)	< 5	25 to 50 (≈ 83.8 to 168 µM)	–
O=C(O)c1cc(-c2ccc([N+](=O)[O-])o2)c2ccccc2[n+]1[O-] [O COOH H NF H H H H]	0.5 (≈ 1.67 µM)	10 to 25 (≈ 33.3 to 83.3 µM)	50 (≈ 167 µM)	–
O=[N+]([O-])c1ccc(-c2ccc3ccccc3n2)o1 [NF H H H H H H, 2-[2'-(5'-nitrofuryl)]quinoline]	0.5 (≈ 2.08 µM)	2 to 5 (≈ 8.33 to 20.8 µM)	–	25 (≈ 104 µM)
Cc1cc(-c2ccc([N+](=O)[O-])o2)c2cc(C(=O)O)c(O)cc2n1 [CH3 H NF H COOH OH H]	10 (≈ 31.8 µM)	> 50	> 50	–
Cc1cc(C)c2nc(C)cc(-c3ccc([N+](=O)[O-])o3)c2c1 [CH3 H NF H CH3 H CH3, 2,6,8-trimethyl-4-[2'-(5'-nitrofuryl)]quinoline]	0.05 to 0.1 (≈ 0.177 to 0.354 µM)	> 50	> 50	–
CCc1ccc2c(c1)c(-c1ccc([N+](=O)[O-])o1)cc(CC)[n+]2[O-] [O C2 H5 H NF H C2 H5 H H]	0.1 (≈ 0.32 µM)	5 to 10 (≈ 16 to 32 µM)	> 10	–
Cc1cc(-c2ccc([N+](=O)[O-])o2)c2ccc(Cl)cc2n1 [CH3 H NF H H Cl H, 2-methyl-4-[2'-(5'-nitrofuryl)]-7-chloro quinoline]	0.1 (≈ 0.346 µM)	25 (≈ 86.6 µM)	0.5 (≈ 1.73 µM)	–
O=[N+]([O-])c1ccc(-c2cc(C(Br)(Br)Br)nc3ccccc23)o1 [CBr3 H NF H H H H, 2-tribromomethyl-4-[2'-(5'-nitrofuryl)]quinoline]	0.5 (≈ 1.02 µM)	30 to 50 (≈ 61.1 to 102 µM)	10 (≈ 20.4 µM)	–
Cc1cc(-c2ccc([N+](=O)[O-])o2)c2c(C)ccc(N)c2n1 [CH3 H NF CH3 H H NH2]	5 (≈ 17.6 µM)	> 50	> 50	–
CCc1ccc2c(c1)c(-c1ccc([N+](=O)[O-])o1)cc(C)[n+]2[O-] [O CH3 H NF H C2 H5 H H]	0.5 (≈ 1.68 µM)	2 to 5 (≈ 6.7 to 16.8 µM)	25 (≈ 83.8 µM)	–
Cc1ccc2nc(C(Br)(Br)Br)cc(-c3ccc([N+](=O)[O-])o3)c2c1 [CBr3 H NF H CH3 H H, 2-tribromomethyl-4-[2'-(5'-nitrofuryl)]-6-methyl quinoline]	1 (≈ 1.98 µM)	> 50	> 25	–
COc1cc2nc(C)cc(-c3ccc([N+](=O)[O-])o3)c2cc1OC [CH3 H NF H OCH3 OCH3 H]	0.5 to 1 (≈ 1.59 to 3.18 µM)	> 50	25 (≈ 79.5 µM)	–
Cc1cc(-c2ccc([N+](=O)[O-])o2)c2ccc(NC(=O)C(F)(F)F)c(C)c2n1 [CH3 H NF H H NHCOCF3 CH3]	0.5 (≈ 1.32 µM)	> 50	> 50	–
CCc1cc(-c2ccc([N+](=O)[O-])o2)c2ccccc2[n+]1[O-] [O C2 H5 H NF H H H H]	0.3 (≈ 1.06 µM)	3 (≈ 10.6 µM)	25 to 50 (≈ 87.9 to 176 µM)	–
CCc1cc(-c2ccc([N+](=O)[O-])o2)c2ccc(C)cc2n1 [C2 H5 H NF H H CH3 H]	5 (≈ 17.7 µM)	> 50	> 50	–
Cc1cc(-c2ccc([N+](=O)[O-])o2)nc2ccccc12 [NF H CH3 H H H H, 2-[2'-(5'-nitrofuryl)]-4-methyl quinoline]	0.2 to 0.5 (≈ 0.787 to 1.97 µM)	0.5 (≈ 1.97 µM)	5 (≈ 19.7 µM)	–
Cc1cc(-c2ccc([N+](=O)[O-])o2)c2cc3ccccc3cc2n1 [CH3 H NF H drawing 6 H, 2-methyl-4-[2'-(5'-nitrofuryl)]-6,7-benzoquinoline]	5 (≈ 16.4 µM)	> 50	> 10	–
